Read-outs that look alike come from different tables or passages of the source.
Experiments:
[1] = system: HIV-1 NL4-3; settings: read-out: Inhibition of HIV-1 infectivity, IC50 (nM), X4 strains, NL4-3; TZM-bl cells; mean ± S.E.M., three experiments
[2] = system: HIV; settings: background; read-out: anti-HIV IC50 in cell-based assays; cited from earlier work
[3] = system: HIV-1 DJ258; settings: read-out: Inhibition of HIV-1 infectivity, IC50 (nM), R5 strains, DJ258; TZM-bl cells; mean ± S.E.M., three experiments
[4] = system: HIV-1 HC4; settings: read-out: Inhibition of HIV-1 infectivity, IC50 (nM), X4 strains, HC4; TZM-bl cells; mean ± S.E.M., three experiments
[5] = system: HIV-1 CC 1/85; settings: read-out: Inhibition of HIV-1 infectivity, IC50 (nM), R5 strains, CC 1/85; TZM-bl cells; mean ± S.E.M., three experiments
[6] = biological target: T1, envelope glycoprotein of the HIV-1 clone HXB2 (Human immunodeficiency virus type 1 group M subtype B, UniProt P04578); assay: cell-cell fusion assay; type: cell-based
T1 construct: One cell line expresses HIV-1 Env (processed by cellular proteases to generate gp120+gp41); expressed in transfected cells; host or cells: CHO cells expressing HXB2 env (and Tat); U373-MAGI target cells

[7] = biological target: gp41-5 (Human immunodeficiency virus type 1 group M subtype B, UniProt P04578, C598G/DEL582-595/DEL601-626/T627G/W596S); assay: biochemical; type: binding, HIV; settings: competition FP
[8] = biological target: T2, NHR α-peptide 1 (Human immunodeficiency virus type 1 group M subtype B, UniProt P04578); assay: CD thermal unfolding of 1:1 NHR + CHR peptide mixtures; type: physicochemical, HIV; settings: Table 2; CD at 222 nm, 1:1 mixture with NHR α-peptide 1, PBS, 20 μM total peptide
T2 construct: made in house; host or cells: chemical synthesis (Fmoc solid phase)
Description: The interactions of select α/β-peptides with the gp41 NHR domain were further investigated by circular dichroism (CD) spectroscopy. The CD spectra of 3, 4, 5, 8, 9 and were measured, both alone (see FIG. 5A) and in a 1:1 mixture with NHR α-peptide 1 (see FIGS. 3A, 3B, 3C, and 3D, respectively). See also FIGS. 5B and 5C for the superimposed spectra. […] The magnitude of the CD signatures among the well-folded mixtures (1+3, 1+5 and 1+10, FIGS. 3A, 3C, and 3D, respectively) are similar, but the ratio of intensities at 208 and 222 nm changes as a function of β-residue content (more β-residues tracks with a less intense peak at 222 nm).
The interactions of CHR α-peptide 3 and α/β-peptide analogues 4, 5, 8 and 10 with a peptide derived from the gp41 NHR domain (1) were investigated by circular dichroism (CD) spectroscopy. […] The magnitude of the CD signatures among the well-folded mixtures (1+3, 1+5, 1+8 and 1+10) are similar, but the ratio of intensities at 208 and 222 nm changes as a function of β-residue content (higher β-residue content is correlated with a less intense peak at 222 nm). This trend is consistent with previous studies on helical oligomers containing mixed α/β backbones.
Circular Dichroism Spectroscopy. Circular dichroism measurements were carried out on an Aviv 202SF Circular Dichroism Spectrophotometer. Samples of each peptide were prepared at 20 μM concentration in PBS. Solutions of 1:1 peptide mixtures were prepared by mixing equal volumes from the same 20 μM stock solutions used for individual peptide measurements. Spectra were recorded in a 1 mm cell with a step size of 1 nm and an averaging time of 5 sec. All spectra are background corrected against buffer measured in the same cell. Thermal melts were carried out in 5-degree increments with an equilibration time of 10 min between each temperature change. Thermal unfolding data were fit to a simple two state folding model Shortle, D.; Meeker, A. K.; Freire, E. Biochemistry 1988, 27, 4761-4768) using GraphPad Prism.

[9] = biological target: T3, proteinase K (Parengyodontium album, UniProt P06873); assay: proteinase K stability of Puma BH3 peptides
[10] = in vitro
[11] = biological target: T4, Bcl-xL (Homo sapiens, UniProt Q07817); assay: biochemical
[12] = biological target: Mcl-1 (Homo sapiens, UniProt Q07820); assay: direct-binding FP of BODIPY-TMR labeled analogs, Mcl-1; settings: Table 5, BODIPY-labeled analogues
[13] = biological target: T4, Bcl-xL; assay: competition FP with fluorescently labeled Bak-BH3 peptide, Bcl-xL; type: binding
[14] = biological target: T3, proteinase K; settings: under the assay conditions
[15] = biological target: T3, proteinase K; assay: in vitro; settings: proteinase K solution in TBS
[16] = Table 4, read-out: gp41-5 binding affinity by FP Ki

T3 sequence (P06873 106-384): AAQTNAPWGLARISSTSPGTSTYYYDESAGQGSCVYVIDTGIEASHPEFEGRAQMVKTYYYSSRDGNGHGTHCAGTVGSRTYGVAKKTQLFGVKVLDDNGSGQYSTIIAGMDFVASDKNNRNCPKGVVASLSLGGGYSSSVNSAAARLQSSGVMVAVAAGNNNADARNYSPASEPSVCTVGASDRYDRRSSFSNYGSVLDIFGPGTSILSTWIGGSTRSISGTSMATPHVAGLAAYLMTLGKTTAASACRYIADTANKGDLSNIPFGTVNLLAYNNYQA
T4 sequence (Q07817 whole entry, species assumed): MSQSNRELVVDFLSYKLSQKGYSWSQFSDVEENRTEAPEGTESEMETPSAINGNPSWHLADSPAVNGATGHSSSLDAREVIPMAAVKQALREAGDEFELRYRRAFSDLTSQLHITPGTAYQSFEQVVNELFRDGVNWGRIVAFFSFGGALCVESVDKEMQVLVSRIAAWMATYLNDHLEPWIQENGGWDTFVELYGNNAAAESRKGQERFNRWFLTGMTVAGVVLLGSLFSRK
Chain of Mcl-1 (Q07820 whole entry, species assumed): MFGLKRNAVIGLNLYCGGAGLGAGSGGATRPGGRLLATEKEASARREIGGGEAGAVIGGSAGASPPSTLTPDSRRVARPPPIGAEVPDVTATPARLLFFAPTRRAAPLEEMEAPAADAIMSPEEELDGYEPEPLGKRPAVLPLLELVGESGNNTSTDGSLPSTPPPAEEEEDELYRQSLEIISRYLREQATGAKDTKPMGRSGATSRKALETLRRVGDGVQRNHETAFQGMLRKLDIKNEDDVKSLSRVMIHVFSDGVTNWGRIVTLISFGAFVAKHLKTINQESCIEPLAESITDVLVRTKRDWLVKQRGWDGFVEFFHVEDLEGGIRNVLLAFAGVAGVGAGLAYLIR

Molecule | IC50 [1] | IC50 [2] | IC50 [3] | IC50 [4] | IC50 [5] | IC50 [6] | Ki ([7]; Table 2, read-out: gp41-5 Ki) | Ki [7, 16] | NHR + CHR Tm (° C.) [8] | half-life at 50 μm [9] | half-life at 50 μm [10] | Kd [11] | Kd [12] | Ki [13] | degradation by proteinase K [14] | half-life at 20 μM ([15]; Tritirachium album (source organism of proteinase K)) | half-life at 20 μM [15] | Ki ([7]; read-out: Ki for gp41-5)
enfuvirtide | 700 ± 100 nM | ~1 nM | 330 ± 60 nM | 250 ± 20 nM | 1400 ± 400 nM |  |  |  |  |  |  |  |  |  |  |  |  | 
CC[C@H](C)[C@H](NC(=O)[C@H](C)NC(=O)[C@H](CCCNC(=N)N)NC(=O)[C@H](CC(=O)O)NC(=O)[C@H](Cc1c[nH]c2ccccc12)NC(=O)[C@H](C)NC(=O)[C@H](CCC(=O)O)NC(=O)[C@H](Cc1c[nH]c2ccccc12)NC(=O)[C@@H](NC(=O)[C@@H](NC(C)=O)[C@@H](C)O)[C@@H](C)O)C(=O)N[C@@H](C)C(=O)N[C@@H](CCC(=O)O)C(=O)N[C@@H](Cc1ccc(O)cc1)C(=O)N[C@@H](C)C(=O)N[C@@H](C)C(=O)N[C@@H](CCCNC(=N)N)C(=O)N[C@H](C(=O)N[C@@H](CCC(=O)O)C(=O)N[C@@H](C)C(=O)N[C@@H](CC(C)C)C(=O)N[C@H](C(=O)N[C@@H](CCCNC(=N)N)CC(=O)N[C@@H](C)C(=O)N[C@@H](C)C(=O)N[C@@H](CCC(N)=O)C(=O)N[C@@H](CCC(=O)O)CC(=O)N[C@@H](CCC(N)=O)C(=O)N[C@@H](CCC(N)=O)C(=O)N[C@@H](CCC(=O)O)CC(=O)N[C@@H](CCCCN)C(=O)N[C@@H](CC(N)=O)C(=O)N[C@@H](CCC(=O)O)C(=O)N[C@@H](C)CC(=O)N[C@@H](C)C(=O)N[C@@H](CC(C)C)C(=O)N[C@@H](CCCNC(=N)N)CC(=O)N[C@@H](CCC(=O)O)C(=O)N[C@@H](CC(C)C)C(N)=O)[C@@H](C)CC)[C@@H](C)CC [compound 5] | 10 ± 2 nM |  | 280 ± 90 nM | 55 ± 8 nM | 270 ± 20 nM | 7 ± 2 nM | 0.2 nM | < 0.2 nM | 69 °C |  |  |  |  |  |  |  |  | 
CC[C@H](C)[C@H](NC(=O)C[C@H](CCC(=O)O)NC(=O)[C@H](CCCNC(=N)N)NC(=O)[C@H](C)NC(=O)[C@H](Cc1c[nH]c2ccccc12)NC(=O)C[C@H](CCC(N)=O)NC(=O)[C@H](CCC(=O)O)NC(=O)[C@H](CCC(=O)O)NC(C)=O)C(=O)NCC(=O)N[C@@H](C)CC(=O)N[C@@H](CCC(N)=O)C(=O)N[C@@H](CC(C)C)C(=O)N[C@@H](CCCNC(=N)N)C(=O)N[C@@H](CCCNC(=N)N)CC(=O)N[C@@H](CCSC)C(=O)N[C@@H](C)C(=O)N[C@@H](CC(=O)O)CC(=O)N[C@@H](CC(=O)O)C(=O)N[C@@H](CC(C)C)C(=O)N[C@@H](CC(N)=O)C(=O)N[C@@H](C)CC(=O)N[C@@H](CCC(N)=O)C(=O)N[C@@H](Cc1ccc(O)cc1)C(=O)N[C@@H](CCC(=O)O)CC(=O)N[C@@H](CCCNC(=N)N)C(=O)N[C@@H](CCCNC(=N)N)C(N)=O [3′] |  |  |  |  |  |  |  |  |  | 2.83 h | 3.5 min |  |  |  |  |  |  | 
CC[C@H](C)[C@H](NC(=O)[C@H](CCC(=O)O)NC(=O)C[C@H](CCCNC(=N)N)NC(=O)[C@H](C)NC(=O)[C@H](Cc1c[nH]c2ccccc12)NC(=O)C[C@H](CCC(N)=O)NC(=O)[C@H](CCC(=O)O)NC(=O)[C@H](CCC(=O)O)NC(C)=O)C(=O)NCC(=O)N[C@@H](C)CC(=O)N[C@@H](CCC(N)=O)C(=O)N[C@@H](CC(C)C)C(=O)N[C@@H](CCCNC(=N)N)CC(=O)N[C@@H](CCCNC(=N)N)C(=O)N[C@@H](CCSC)C(=O)N[C@@H](C)C(=O)N[C@@H](CC(=O)O)CC(=O)N[C@@H](CC(=O)O)C(=O)N[C@@H](CC(C)C)C(=O)N[C@@H](CC(N)=O)CC(=O)N[C@@H](C)C(=O)N[C@@H](CCC(N)=O)C(=O)N[C@@H](Cc1ccc(O)cc1)C(=O)N[C@@H](CCC(=O)O)CC(=O)N[C@@H](CCCNC(=N)N)C(=O)N[C@@H](CCCNC(=N)N)C(N)=O [2′] |  |  |  |  |  |  |  |  |  | > 50 h | 100 min | 2.2 nM | 110 nM | < 1 nM |  |  |  | 
CC[C@H](C)[C@H](NC(=O)[C@H](C)NC(=O)[C@H](CCCNC(=N)N)NC(=O)[C@H](CC(=O)O)NC(=O)[C@H](Cc1c[nH]c2ccccc12)NC(=O)[C@H](C)NC(=O)[C@H](CCC(=O)O)NC(=O)[C@H](Cc1c[nH]c2ccccc12)NC(=O)[C@@H](NC(=O)[C@@H](NC(C)=O)[C@@H](C)O)[C@@H](C)O)C(=O)N[C@@H](C)C(=O)N[C@@H](CCC(=O)O)C(=O)N[C@@H](Cc1ccc(O)cc1)C(=O)N[C@@H](C)C(=O)N[C@@H](C)C(=O)N[C@@H](CCCNC(=N)N)C(=O)N[C@H](C(=O)N[C@@H](CCC(=O)O)C(=O)N[C@@H](C)C(=O)N[C@@H](CC(C)C)C(=O)N[C@H](C(=O)N[C@@H](CCCNC(=N)N)C(=O)N[C@@H](C)C(=O)N[C@@H](C)C(=O)N[C@@H](CCC(N)=O)C(=O)N[C@@H](CCC(=O)O)C(=O)N[C@@H](CCC(N)=O)C(=O)N[C@@H](CCC(N)=O)C(=O)N[C@@H](CCC(=O)O)C(=O)N[C@@H](CCCCN)C(=O)N[C@@H](CC(N)=O)C(=O)N[C@@H](CCC(=O)O)C(=O)N[C@@H](C)C(=O)N[C@@H](C)C(=O)N[C@@H](CC(C)C)C(=O)N[C@@H](CCCNC(=N)N)C(=O)N[C@@H](CCC(=O)O)C(=O)N[C@@H](CC(C)C)C(N)=O)[C@@H](C)CC)[C@@H](C)CC [compound 3, reference compound] | 5 ± 0.6 nM |  | 58 ± 6 nM | 27 ± 4 nM | 140 ± 20 nM | 9 ± 3 nM | ≤ 0.2 nM | < 0.2 nM | 77 °C |  |  |  |  |  | completely degraded within minutes | 0.7 min | 0.7 min | < 0.2 nM
